Patent US10040781B2, “Tank-binding kinase inhibitor compounds” (Gilead Sciences, Inc., priority 2014, dated 2018)
Like-named read-outs stand apart in the source and are kept apart here.

What was measured:
hJAK2 = hJAK2 (Homo sapiens (Human), UniProt O60674); test: hJAK2 LANCE TR-FRET enzymatic assay; format: biochemical; settings: read-out: JAK2 IC50
TBK1 = TBK1 (Homo sapiens (Human), UniProt Q9UHD2); test: TBK1 TR-FRET enzymatic assay;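 also: phosphorylation of a biotinylated Ser/Thr peptide by purified full-length recombinant TBK1, read by TR-FRET after 240 min at 25 °C, IC50 is the geometric mean of at least four runs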
TBK1, sequence (Q9UHD2 whole entry): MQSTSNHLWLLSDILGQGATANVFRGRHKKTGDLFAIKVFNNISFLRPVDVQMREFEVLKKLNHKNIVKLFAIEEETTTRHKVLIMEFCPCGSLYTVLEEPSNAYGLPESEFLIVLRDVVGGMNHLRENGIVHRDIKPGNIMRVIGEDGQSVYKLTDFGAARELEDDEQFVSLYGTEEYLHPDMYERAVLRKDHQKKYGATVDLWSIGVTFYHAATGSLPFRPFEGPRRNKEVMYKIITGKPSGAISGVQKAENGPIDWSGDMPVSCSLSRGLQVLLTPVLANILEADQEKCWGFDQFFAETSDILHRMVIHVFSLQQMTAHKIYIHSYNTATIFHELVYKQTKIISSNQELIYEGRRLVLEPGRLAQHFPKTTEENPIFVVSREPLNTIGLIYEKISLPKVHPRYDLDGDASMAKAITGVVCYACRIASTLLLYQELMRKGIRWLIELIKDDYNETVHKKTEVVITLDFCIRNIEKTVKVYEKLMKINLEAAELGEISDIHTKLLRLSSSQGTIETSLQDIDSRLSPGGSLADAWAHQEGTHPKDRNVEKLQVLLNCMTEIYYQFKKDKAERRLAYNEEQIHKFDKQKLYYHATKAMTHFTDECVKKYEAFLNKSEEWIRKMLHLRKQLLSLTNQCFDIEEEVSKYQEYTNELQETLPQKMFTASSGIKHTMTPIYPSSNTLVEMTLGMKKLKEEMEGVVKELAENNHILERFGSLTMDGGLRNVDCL

IKKε = IKKε (Homo sapiens (Human), UniProt Q14164); test: IKKε TR-FRET enzymatic assay; format: biochemical; settings: read-out: IKKe IC50
IKKε, sequence (Q14164 whole entry): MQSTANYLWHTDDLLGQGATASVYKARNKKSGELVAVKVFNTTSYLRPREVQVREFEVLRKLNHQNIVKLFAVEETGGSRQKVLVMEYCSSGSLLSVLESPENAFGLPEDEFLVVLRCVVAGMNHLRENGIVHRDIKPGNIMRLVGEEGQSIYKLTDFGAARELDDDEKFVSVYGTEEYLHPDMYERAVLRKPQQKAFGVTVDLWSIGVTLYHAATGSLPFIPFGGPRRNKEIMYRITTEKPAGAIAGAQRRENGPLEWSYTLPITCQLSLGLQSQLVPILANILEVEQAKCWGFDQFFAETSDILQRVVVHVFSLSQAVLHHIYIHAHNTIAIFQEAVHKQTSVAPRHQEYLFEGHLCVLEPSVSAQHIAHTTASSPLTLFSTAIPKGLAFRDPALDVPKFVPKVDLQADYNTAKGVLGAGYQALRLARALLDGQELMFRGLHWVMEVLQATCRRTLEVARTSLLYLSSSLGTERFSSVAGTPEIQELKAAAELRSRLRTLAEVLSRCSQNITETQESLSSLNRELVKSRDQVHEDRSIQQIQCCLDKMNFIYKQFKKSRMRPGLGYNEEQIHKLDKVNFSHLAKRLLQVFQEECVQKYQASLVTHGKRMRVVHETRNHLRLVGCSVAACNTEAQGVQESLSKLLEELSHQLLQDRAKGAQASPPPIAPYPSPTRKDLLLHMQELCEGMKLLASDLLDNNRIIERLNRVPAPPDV

[1] = TR-FRET, 2×Km ATP, geometric mean of minimum four determinations

hJAK2, sequence (O60674 whole entry): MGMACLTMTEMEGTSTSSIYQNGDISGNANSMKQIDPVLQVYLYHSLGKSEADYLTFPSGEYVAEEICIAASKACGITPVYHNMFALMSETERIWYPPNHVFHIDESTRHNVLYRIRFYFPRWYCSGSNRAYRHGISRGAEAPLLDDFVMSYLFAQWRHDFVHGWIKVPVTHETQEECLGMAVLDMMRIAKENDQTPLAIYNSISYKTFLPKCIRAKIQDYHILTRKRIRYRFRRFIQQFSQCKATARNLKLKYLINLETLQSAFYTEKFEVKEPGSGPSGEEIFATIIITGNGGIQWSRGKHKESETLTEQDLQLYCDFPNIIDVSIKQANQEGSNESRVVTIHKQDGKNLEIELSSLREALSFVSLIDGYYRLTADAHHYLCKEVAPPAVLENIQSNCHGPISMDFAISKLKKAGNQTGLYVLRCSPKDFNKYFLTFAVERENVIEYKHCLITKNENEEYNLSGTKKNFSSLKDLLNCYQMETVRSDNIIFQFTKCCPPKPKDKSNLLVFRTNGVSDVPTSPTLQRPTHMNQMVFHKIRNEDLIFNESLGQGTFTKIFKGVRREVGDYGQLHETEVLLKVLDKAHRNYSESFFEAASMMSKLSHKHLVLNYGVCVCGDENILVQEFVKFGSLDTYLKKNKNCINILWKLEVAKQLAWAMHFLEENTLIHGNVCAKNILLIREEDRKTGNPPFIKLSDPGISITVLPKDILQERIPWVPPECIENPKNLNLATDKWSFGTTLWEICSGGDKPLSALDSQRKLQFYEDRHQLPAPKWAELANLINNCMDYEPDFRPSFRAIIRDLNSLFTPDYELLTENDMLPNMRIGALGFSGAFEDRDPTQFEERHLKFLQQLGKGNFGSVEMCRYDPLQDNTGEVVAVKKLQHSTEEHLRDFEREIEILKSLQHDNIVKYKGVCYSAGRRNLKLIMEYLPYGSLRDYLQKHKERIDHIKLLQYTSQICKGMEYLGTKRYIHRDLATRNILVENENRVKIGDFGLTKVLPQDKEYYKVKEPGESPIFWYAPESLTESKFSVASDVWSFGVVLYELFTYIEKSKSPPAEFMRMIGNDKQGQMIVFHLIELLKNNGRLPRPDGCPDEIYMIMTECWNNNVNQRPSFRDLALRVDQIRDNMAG

SMILES	IC50 (hJAK2)	IC50 (TBK1)	IC50 (IKKε)	IC50 (IKKε; [1])
CN1CCN(c2cccc(Nc3ncnc(-c4ccc(OC5CCOCC5)c(C#N)c4)n3)c2)CC1 [Example 62, 5-(4-((3-(4-methylpiperazin-1-yl)phenyl)amino)-1,3,5-triazin-2-yl)-2-((tetrahydro-2H-pyran-4-yl)oxy)benzonitrile]	> 1000 nM	5 nM	3 nM	
Cn1cc(C(=O)N2C[C@@H](F)[C@@H](Oc3ccc(-c4ncnc(Nc5ccc(N6CCN(C7COC7)CC6)cc5)n4)cc3C#N)C(C)(C)C2)nn1 [Example 441, 2-(((4S,5R)-5-fluoro-3,3-dimethyl-1-(1-methyl-1H-1,2,3-triazole-4-carbonyl)piperidin-4-yl)oxy)-5-(4-((4-(4-(oxetan-3-yl)piperazin-1-yl)phenyl)amino)-1,3,5-triazin-2-yl)benzonitrile]	88 nM	3 nM		2 nM
CC(=O)NCC(=O)N1CCC(Oc2ccc(-c3ncnc(Nc4ccc(N5CCN(C6COC6)CC5)cc4)n3)cc2C#N)CC1 [Example 52, N-(2-(4-(2-cyano-4-(4-((4-(4-(oxetan-3-yl)piperazin-1-yl)phenyl)amino)-1,3,5-triazin-2-yl)phenoxy)piperidin-1-yl)-2-oxoethyl)acetamide]	491 nM	65 nM	223 nM	
C[C@H](O)C(=O)N1CC[C@@H](Oc2ccc(-c3ncnc(Nc4ccc(N5CCN(C6COC6)CC5)cc4)n3)cc2C#N)C[C@H]1C [Example 185, 2-(((2R,4R)-1-((S)-2-hydroxypropanoyl)-2-methylpiperidin-4-yl)oxy)-5-(4-((4-(4-(oxetan-3-yl)piperazin-1-yl)phenyl)amino)-1,3,5-triazin-2-yl)benzonitrile]	≥ 1000 nM	94 nM	190 nM	
C=CC(=O)Nc1ccc(Nc2ncnc(-c3ccc(OC4CCOCC4)c(C#N)c3)n2)cc1 [Example 39, N-(4-((4-(3-cyano-4-((tetrahydro-2H-pyran-4-yl)oxy)phenyl)-1,3,5-triazin-2-yl)amino)phenyl)acrylamide]	> 1000 nM	6 nM	35 nM	
Cc1cc(N2CCOCC2)ccc1Nc1ncnc(-c2ccc(OC3CCOCC3)c(C#N)c2)n1 [Example 109, 5-(4-((2-methyl-4-morpholinophenyl)amino)-1,3,5-triazin-2-yl)-2-((tetrahydro-2H-pyran-4-yl)oxy)benzonitrile]	> 1000 nM	76 nM	161 nM	
CCOc1ccc(Nc2ncnc(-c3ccc(O[C@H]4CCN(C(=O)[C@H](C)O)C[C@H]4F)c(C#N)c3)n2)cn1 [Example 541, 5-(4-((6-ethoxypyridin-3-yl)amino)-1,3,5-triazin-2-yl)-2-(((3R,4S)-3-fluoro-1-((S)-2-hydroxypropanoyl)piperidin-4-yl)oxy)benzonitrile]	≥ 1000 nM	15 nM		17 nM
N#Cc1cc(-c2ncnc(Nc3ccc(N4CCN(C5COC5)CC4)c(OC(F)F)c3)n2)ccc1O[C@H]1CCN(C(=O)CO)C[C@H]1F [Example 393, 5-(4-((3-(difluoromethoxy)-4-(4-(oxetan-3-yl)piperazin-1-yl)phenyl)amino)-1,3,5-triazin-2-yl)-2-(((3R,4S)-3-fluoro-1-(2-hydroxyacetyl)piperidin-4-yl)oxy)benzonitrile]	29 nM	3 nM	1 nM	
N#Cc1cc(-c2ncnc(Nc3ccc(N4CCOCC4)cc3)n2)ccc1OC1CCOCC1 [Example 49, 5-(4-((4-morpholinophenyl)amino)-1,3,5-triazin-2-yl)-2-((tetrahydro-2H-pyran-4-yl)oxy)benzonitrile]	436 nM	2 nM	7 nM	

Other lines, results leading:

IC50 (hJAK2)	IC50 (TBK1)	IC50 (IKKε)	IC50 (IKKε; [1])	SMILES
670 nM	3 nM	9 nM		CC(C)NC(=O)c1ccc(Nc2ncnc(-c3ccc(OC4CCOCC4)c(C#N)c3)n2)cc1 [Example 46, 4-((4-(3-cyano-4-((tetrahydro-2H-pyran-4-yl)oxy)phenyl)-1,3,5-triazin-2-yl)amino)-N-isopropylbenzamide]
562 nM	28 nM		174 nM	N#Cc1cc(-c2ncnc(Nc3ccc(N4CCN(C5COC5)CC4)cc3)n2)ccc1O[C@H]1CCN(C(=O)[C@H]2CNC(=O)C2)C[C@H]1F [Example 552, 2-(((3R,4S)-3-fluoro-1-((R)-5-oxopyrrolidine-3-carbonyl)piperidin-4-yl)oxy)-5-(4-((4-(4-(oxetan-3-yl)piperazin-1-yl)phenyl)amino)-1,3,5-triazin-2-yl)benzonitrile]
519 nM	3 nM		2 nM	C[C@H](O)C(=O)N1CC[C@H](Oc2ccc(-c3ncnc(Nc4cccc(CN5CCOCC5)c4)n3)cc2C#N)[C@H](F)C1 [Example 539, 2-(((3R,4S)-3-fluoro-1-((S)-2-hydroxypropanoyl)piperidin-4-yl)oxy)-5-(4-((3-(morpholinomethyl)phenyl)amino)-1,3,5-triazin-2-yl)benzonitrile]
≥ 1000 nM	56 nM	111 nM		C[C@H](O)C(=O)N1CCC[C@@H](Oc2ccc(-c3ncnc(Nc4ccc(N5CCN(C6COC6)CC5)cc4)n3)cc2C#N)C1 [Example 126, 2-(((R)-1-((S)-2-hydroxypropanoyl)piperidin-3-yl)oxy)-5-(4-((4-(4-(oxetan-3-yl)piperazin-1-yl)phenyl)amino)-1,3,5-triazin-2-yl)benzonitrile]
21 nM	9 nM		12 nM	N#Cc1cc(-c2ncnc(Nc3ccc(N4CCN(C5COC5)CC4)cc3)n2)ccc1O[C@H]1CCN(C(=O)CO)C[C@H]1C(F)(F)F (relative stereo) [Example 439, cis-2-((1-(2-hydroxyacetyl)-3-(trifluoromethyl)piperidin-4-yl)oxy)-5-(4-((4-(4-(oxetan-3-yl)piperazin-1-yl)phenyl)amino)-1,3,5-triazin-2-yl)benzonitrile]
173 nM	2 nM	2 nM		N#Cc1cc(-c2ncnc(Nc3ccc(N4CCN(C5COC5)CC4)cc3)n2)ccc1O[C@H]1CCN(C(=O)CCO)CC1(F)F [Example 161, (S)-2-((3,3-difluoro-1-(3-hydroxypropanoyl)piperidin-4-yl)oxy)-5-(4-((4-(4-(oxetan-3-yl)piperazin-1-yl)phenyl)amino)-1,3,5-triazin-2-yl)benzonitrile]
182 nM	21 nM	60 nM		C[C@@H]1C[C@H](Oc2ccc(-c3ncnc(Nc4ccc(N5CCN(C6COC6)CC5)cc4)n3)cc2C#N)CCN1C(=O)CO [Example 222, 2-(((2R,4R)-1-(2-hydroxyacetyl)-2-methylpiperidin-4-yl)oxy)-5-(4-((4-(4-(oxetan-3-yl)piperazin-1-yl)phenyl)amino)-1,3,5-triazin-2-yl)benzonitrile]
356 nM	3 nM	2 nM		N#Cc1cc(-c2ncnc(Nc3ccc(N4CCN(C5COC5)CC4)cc3)n2)ccc1O[C@H]1CCN(C(=O)c2ccc[nH]2)C[C@H]1F [Example 141, 2-(((3R,4S)-3-fluoro-1-(1H-pyrrole-2-carbonyl)piperidin-4-yl)oxy)-5-(4-((4-(4-(oxetan-3-yl)piperazin-1-yl)phenyl)amino)-1,3,5-triazin-2-yl)benzonitrile]
≥ 1000 nM	128 nM	312 nM		C[C@@H]1C[C@H](Oc2ccc(-c3ncnc(Nc4ccc(N5CCN(C6COC6)CC5)cc4)n3)cc2C#N)CCN1C(=O)[C@@H](C)O [Example 186, 2-(((2R,4R)-1-((R)-2-hydroxypropanoyl)-2-methylpiperidin-4-yl)oxy)-5-(4-((4-(4-(oxetan-3-yl)piperazin-1-yl)phenyl)amino)-1,3,5-triazin-2-yl)benzonitrile]
525 nM	121 nM	249 nM		C[C@H]1C[C@@H](Oc2ccc(-c3ncnc(Nc4ccc(N5CCN(C6COC6)CC5)cc4)n3)cc2C#N)CN1C(=O)CO [Example 100, 2-(((3R,5S)-1-(2-hydroxyacetyl)-5-methylpyrrolidin-3-yl)oxy)-5-(4-((4-(4-(oxetan-3-yl)piperazin-1-yl)phenyl)amino)-1,3,5-triazin-2-yl)benzonitrile]
≥ 1000 nM	4 nM	4 nM		C[C@H](O)C(=O)N1CC[C@H](Oc2c(F)cc(-c3ncnc(Nc4ccc(N5CCN(C6COC6)CC5)cc4)n3)cc2C#N)[C@H](F)C1 [Example 328, 3-fluoro-2-(((3R,4S)-3-fluoro-1-((S)-2-hydroxypropanoyl)piperidin-4-yl)oxy)-5-(4-((4-(4-(oxetan-3-yl)piperazin-1-yl)phenyl)amino)-1,3,5-triazin-2-yl)benzonitrile]
223 nM	23 nM		61 nM	CC(C)(C)n1cc(Nc2ncnc(-c3ccc(O[C@H]4CCN(C(=O)CCO)C[C@H]4F)c(C#N)c3)n2)cn1 [Example 458, 5-(4-((1-(tert-butyl)-1H-pyrazol-4-yl)amino)-1,3,5-triazin-2-yl)-2-(((3R,4S)-3-fluoro-1-(3-hydroxypropanoyl)piperidin-4-yl)oxy)benzonitrile]
> 1000 nM	21 nM	55 nM		COc1ccc(Nc2ncnc(-c3ccc(OC4CCOCC4)c(C#N)c3)n2)cn1 [Example 77, 5-(4-((6-methoxypyridin-3-yl)amino)-1,3,5-triazin-2-yl)-2-((tetrahydro-2H-pyran-4-yl)oxy)benzonitrile]
≥ 1000 nM	3 nM		1 nM	C[C@H](O)C(=O)N1CC[C@H](Oc2ccc(-c3ncnc(Nc4ccc(O[C@H]5CCN(C)C[C@H]5F)cc4)n3)cc2C#N)[C@H](F)C1 [Example 400, 2-(((3R,4S)-3-fluoro-1-((S)-2-hydroxypropanoyl)piperidin-4-yl)oxy)-5-(4-((4-(((3R,4S)-3-fluoro-1-methylpiperidin-4-yl)oxy)phenyl)amino)-1,3,5-triazin-2-yl)benzonitrile]
